Values of other authors as cited in PMC9851200, “Multiparameter phenotypic screening for endogenous TFEB and TFE3 translocation identifies novel chemical series modulating lysosome function” (Autophagy, 2022).

How the values were obtained:
Design in all cases: method as in original PKIS2 published data
[1] = biological target: kinases (KINOMEscan panel) (Homo sapiens, UniProt P08069); details: kinase IGF1R; Published KINOMEscan; ref original PKIS2 published data; cited from earlier work
[2] = biological target: T1, kinases (KINOMEscan panel) (Homo sapiens, UniProt Q04771); details: ACVR1; Published KINOMEscan; ref original PKIS2 published data; cited from earlier work
T1 sequence (Q04771 21-509): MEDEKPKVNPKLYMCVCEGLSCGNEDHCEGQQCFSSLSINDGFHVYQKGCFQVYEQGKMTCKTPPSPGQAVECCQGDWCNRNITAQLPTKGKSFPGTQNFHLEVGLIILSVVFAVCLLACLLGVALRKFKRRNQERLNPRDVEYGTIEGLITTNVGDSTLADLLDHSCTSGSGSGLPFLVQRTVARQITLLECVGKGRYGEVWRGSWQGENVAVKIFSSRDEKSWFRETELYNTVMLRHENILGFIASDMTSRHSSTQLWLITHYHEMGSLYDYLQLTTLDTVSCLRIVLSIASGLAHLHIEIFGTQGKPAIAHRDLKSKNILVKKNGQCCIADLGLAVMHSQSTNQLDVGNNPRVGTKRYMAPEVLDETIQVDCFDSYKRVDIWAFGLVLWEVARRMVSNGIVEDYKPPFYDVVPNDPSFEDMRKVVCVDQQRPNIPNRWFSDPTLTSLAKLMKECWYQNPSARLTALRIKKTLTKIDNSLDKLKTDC

[3] = biological target: kinases (KINOMEscan panel) (Homo sapiens, UniProt P29376); details: LTK; Published KINOMEscan; ref original PKIS2 published data; cited from earlier work
[4] = biological target: kinases (KINOMEscan panel) (Homo sapiens, UniProt Q9NYY3); details: PLK2; Published KINOMEscan; ref original PKIS2 published data; cited from earlier work
[5] = biological target: T2, kinases (KINOMEscan panel) (Homo sapiens, UniProt Q96PN8); details: kinase TSSK3; Published KINOMEscan; ref original PKIS2 published data; cited from earlier work
T2 sequence (Q96PN8 1-268): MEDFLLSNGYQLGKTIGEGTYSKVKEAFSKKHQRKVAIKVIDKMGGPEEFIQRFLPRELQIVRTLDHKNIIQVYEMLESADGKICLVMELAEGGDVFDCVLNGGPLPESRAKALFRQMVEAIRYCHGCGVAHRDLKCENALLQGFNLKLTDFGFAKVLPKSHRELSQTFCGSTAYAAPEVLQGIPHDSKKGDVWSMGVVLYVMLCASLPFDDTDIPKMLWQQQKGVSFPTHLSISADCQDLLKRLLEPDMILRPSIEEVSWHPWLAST

[6] = biological target: kinases (KINOMEscan panel) (Homo sapiens, UniProt P29317); details: EPHA2; Published KINOMEscan; ref original PKIS2 published data; cited from earlier work
[7] = biological target: T3, kinases (KINOMEscan panel) (Homo sapiens, UniProt O00141); details: kinase SGK1; Published KINOMEscan; ref original PKIS2 published data; cited from earlier work
T3 sequence (O00141 1-431): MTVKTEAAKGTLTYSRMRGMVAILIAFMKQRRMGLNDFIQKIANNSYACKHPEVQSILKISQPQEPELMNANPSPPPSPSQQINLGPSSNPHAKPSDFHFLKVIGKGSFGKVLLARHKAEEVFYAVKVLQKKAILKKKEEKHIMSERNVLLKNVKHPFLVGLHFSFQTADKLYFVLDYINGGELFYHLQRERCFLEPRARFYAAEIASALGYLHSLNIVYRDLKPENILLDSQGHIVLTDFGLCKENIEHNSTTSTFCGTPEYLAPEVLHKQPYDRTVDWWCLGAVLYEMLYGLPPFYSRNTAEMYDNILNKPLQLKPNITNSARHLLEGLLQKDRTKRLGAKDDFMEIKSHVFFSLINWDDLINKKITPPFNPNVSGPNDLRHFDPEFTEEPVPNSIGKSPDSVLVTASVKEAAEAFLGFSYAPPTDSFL

[8] = biological target: T4, kinases (KINOMEscan panel) (Homo sapiens, UniProt Q96L34); details: kinase MARK4; Published KINOMEscan; ref original PKIS2 published data; cited from earlier work
T4 sequence (Q96L34 1-752): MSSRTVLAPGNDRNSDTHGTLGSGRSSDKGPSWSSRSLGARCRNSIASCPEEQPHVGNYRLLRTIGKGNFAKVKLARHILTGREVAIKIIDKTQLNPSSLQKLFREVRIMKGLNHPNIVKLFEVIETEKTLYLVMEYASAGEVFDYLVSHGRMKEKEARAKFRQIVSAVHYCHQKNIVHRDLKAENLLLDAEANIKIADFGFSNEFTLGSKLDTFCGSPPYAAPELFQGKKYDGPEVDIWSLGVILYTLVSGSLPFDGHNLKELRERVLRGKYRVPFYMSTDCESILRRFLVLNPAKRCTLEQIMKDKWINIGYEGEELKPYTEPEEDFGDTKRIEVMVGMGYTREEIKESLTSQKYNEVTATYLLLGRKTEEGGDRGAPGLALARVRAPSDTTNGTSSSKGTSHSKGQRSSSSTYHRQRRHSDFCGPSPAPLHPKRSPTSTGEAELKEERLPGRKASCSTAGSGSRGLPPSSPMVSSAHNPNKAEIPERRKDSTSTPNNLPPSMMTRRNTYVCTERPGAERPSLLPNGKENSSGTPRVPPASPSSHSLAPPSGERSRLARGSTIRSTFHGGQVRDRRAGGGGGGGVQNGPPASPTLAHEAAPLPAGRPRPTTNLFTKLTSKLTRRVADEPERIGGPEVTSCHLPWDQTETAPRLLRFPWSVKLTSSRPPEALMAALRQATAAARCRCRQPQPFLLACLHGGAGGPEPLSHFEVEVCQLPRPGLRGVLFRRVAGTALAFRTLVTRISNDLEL

[9] = biological target: kinases (KINOMEscan panel) (Homo sapiens, UniProt Q05655); details: kinase PRKCD; Published KINOMEscan; ref original PKIS2 published data; cited from earlier work
Sequence of kinases (KINOMEscan panel) (Homo sapiens, UniProt Q05655) (Q05655 whole entry): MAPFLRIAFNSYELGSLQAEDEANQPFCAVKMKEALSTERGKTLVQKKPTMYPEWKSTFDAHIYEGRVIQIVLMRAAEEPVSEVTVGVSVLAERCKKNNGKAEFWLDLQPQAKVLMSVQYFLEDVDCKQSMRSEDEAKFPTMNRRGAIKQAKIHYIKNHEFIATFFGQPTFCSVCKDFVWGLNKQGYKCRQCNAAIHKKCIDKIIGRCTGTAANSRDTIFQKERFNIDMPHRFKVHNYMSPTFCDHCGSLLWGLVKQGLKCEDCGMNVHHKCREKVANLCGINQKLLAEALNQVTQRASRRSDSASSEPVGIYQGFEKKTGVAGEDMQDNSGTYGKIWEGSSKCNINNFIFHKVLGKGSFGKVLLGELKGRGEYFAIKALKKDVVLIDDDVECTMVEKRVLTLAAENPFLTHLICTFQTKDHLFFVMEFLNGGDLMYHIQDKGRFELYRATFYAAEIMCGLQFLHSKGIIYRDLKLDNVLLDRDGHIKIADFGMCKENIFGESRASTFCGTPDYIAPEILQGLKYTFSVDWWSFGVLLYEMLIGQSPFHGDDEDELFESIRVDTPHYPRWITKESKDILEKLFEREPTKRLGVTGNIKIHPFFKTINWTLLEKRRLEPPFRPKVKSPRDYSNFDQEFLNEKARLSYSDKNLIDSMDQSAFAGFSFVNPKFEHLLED

Sequence of kinases (KINOMEscan panel) (Homo sapiens, UniProt P08069) (P08069 31-1367): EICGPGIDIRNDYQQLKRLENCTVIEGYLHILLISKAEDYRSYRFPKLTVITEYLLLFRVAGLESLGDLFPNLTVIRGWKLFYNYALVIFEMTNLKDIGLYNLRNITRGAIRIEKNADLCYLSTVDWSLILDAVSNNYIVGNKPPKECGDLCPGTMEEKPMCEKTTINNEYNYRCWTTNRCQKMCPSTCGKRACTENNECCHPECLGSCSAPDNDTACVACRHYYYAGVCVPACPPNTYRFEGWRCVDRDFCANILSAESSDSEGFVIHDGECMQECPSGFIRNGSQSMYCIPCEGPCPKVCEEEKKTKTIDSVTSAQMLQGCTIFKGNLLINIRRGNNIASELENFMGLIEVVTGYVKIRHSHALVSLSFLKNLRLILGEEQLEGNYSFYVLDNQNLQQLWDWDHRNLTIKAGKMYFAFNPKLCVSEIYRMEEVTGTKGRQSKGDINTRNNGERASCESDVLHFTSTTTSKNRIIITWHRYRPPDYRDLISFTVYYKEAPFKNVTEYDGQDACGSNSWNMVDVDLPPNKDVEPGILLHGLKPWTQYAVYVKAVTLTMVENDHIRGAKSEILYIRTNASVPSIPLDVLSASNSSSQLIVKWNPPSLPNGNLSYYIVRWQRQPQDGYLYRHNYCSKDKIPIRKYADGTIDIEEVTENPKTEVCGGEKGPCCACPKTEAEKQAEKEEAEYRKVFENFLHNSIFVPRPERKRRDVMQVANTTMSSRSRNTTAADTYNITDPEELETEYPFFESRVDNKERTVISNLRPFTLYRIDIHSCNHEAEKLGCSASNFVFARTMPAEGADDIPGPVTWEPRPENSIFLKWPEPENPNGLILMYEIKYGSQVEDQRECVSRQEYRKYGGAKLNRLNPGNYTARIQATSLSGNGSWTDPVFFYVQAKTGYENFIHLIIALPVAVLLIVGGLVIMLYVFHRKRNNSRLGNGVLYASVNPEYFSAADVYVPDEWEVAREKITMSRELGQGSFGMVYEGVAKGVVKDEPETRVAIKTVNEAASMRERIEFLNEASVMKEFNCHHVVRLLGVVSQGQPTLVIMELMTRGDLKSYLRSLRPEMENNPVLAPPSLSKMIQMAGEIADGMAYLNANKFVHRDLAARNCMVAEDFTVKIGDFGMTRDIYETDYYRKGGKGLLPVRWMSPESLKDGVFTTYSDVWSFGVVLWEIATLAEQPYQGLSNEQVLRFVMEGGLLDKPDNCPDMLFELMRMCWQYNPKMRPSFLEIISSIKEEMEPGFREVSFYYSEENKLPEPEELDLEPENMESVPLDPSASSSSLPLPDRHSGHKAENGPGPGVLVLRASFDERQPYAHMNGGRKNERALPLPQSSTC
Sequence of kinases (KINOMEscan panel) (Homo sapiens, UniProt Q9NYY3) (Q9NYY3 whole entry): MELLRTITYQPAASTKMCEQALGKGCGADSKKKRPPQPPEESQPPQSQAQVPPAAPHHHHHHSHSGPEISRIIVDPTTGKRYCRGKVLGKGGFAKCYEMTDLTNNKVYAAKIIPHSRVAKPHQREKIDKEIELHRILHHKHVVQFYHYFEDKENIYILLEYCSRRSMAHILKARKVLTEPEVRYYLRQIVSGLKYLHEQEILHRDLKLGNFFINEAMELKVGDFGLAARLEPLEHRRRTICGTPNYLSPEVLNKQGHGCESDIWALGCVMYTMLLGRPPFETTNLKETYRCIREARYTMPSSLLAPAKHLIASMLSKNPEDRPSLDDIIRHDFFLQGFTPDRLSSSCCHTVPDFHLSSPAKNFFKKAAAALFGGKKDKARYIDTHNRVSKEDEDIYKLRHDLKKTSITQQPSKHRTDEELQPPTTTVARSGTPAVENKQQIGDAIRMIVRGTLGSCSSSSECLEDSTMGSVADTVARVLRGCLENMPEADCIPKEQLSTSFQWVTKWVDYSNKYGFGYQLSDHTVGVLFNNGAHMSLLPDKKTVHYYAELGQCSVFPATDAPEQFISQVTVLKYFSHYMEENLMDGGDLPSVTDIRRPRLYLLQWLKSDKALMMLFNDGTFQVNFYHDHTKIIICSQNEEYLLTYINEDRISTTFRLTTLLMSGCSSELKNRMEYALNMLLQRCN
Sequence of kinases (KINOMEscan panel) (Homo sapiens, UniProt P29317) (P29317 24-976): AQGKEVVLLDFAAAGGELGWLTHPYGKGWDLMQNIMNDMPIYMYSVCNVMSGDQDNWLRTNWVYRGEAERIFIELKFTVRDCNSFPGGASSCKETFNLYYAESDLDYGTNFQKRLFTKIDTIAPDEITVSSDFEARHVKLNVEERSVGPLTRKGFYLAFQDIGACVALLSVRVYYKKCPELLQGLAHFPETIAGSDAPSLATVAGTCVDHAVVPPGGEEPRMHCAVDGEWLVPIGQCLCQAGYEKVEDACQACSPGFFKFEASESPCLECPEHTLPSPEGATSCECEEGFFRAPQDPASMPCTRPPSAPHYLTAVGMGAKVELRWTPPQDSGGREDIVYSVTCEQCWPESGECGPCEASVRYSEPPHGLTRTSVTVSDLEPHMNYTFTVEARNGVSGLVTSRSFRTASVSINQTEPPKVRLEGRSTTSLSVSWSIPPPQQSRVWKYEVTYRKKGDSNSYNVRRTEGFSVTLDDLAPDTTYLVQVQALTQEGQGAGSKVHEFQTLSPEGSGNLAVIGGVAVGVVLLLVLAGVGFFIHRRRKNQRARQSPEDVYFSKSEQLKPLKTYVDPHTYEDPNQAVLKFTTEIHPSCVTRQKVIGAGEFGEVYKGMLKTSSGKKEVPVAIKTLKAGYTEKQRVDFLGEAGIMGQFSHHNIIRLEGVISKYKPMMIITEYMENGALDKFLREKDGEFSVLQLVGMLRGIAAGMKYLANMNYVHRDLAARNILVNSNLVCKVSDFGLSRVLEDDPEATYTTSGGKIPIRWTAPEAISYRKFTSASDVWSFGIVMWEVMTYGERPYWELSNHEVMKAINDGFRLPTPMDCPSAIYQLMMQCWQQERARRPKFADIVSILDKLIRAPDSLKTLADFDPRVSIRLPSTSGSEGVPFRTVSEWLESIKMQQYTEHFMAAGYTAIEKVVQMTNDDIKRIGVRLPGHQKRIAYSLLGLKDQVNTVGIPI
Sequence of kinases (KINOMEscan panel) (Homo sapiens, UniProt P29376) (P29376 17-864): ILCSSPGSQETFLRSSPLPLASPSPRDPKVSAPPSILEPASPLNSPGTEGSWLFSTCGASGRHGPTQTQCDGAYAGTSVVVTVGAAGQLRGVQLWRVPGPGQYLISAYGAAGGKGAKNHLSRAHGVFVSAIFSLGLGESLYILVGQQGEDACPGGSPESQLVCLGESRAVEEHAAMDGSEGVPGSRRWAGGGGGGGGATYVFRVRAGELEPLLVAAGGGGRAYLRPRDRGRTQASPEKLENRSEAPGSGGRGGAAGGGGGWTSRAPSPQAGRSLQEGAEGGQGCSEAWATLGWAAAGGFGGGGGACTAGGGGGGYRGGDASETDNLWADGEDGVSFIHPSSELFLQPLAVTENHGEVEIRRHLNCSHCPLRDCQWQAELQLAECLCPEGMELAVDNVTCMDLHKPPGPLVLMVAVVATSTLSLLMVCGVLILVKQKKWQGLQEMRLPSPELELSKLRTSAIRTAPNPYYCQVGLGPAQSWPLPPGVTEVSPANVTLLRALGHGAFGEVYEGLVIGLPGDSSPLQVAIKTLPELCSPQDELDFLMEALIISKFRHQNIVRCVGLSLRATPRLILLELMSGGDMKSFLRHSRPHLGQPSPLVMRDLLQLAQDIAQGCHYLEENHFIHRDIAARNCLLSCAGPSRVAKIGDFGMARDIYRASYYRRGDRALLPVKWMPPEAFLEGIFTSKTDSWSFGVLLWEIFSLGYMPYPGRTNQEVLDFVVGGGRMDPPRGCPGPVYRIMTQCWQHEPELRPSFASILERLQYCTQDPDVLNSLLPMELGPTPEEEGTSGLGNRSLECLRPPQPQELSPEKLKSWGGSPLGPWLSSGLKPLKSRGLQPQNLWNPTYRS

## Cc1cccc(-c2nc(Nc3ccncc3)c3ccccc3n2)n1 [NK215]
[1]
  KINOMEscan IGF1R: 0
[2]
  KINOMEscan ACVR1: 15
[3]
  KINOMEscan LTK: 21
[4]
  KINOMEscan PLK2: 0
[5]
  KINOMEscan TSSK3: 0
[6]
  KINOMEscan EPHA2: 18
[7]
  KINOMEscan SGK1: 0
[8]
  KINOMEscan MARK4: 25
[9]
  KINOMEscan PRKCD: 29
